Source: US20110196035A1, “Temporally-Controlled Treatment of Joint Disease” (priority 2010, published 2011)
Where two headings read alike, the source gives them in different places.

Tested on: HIG-82 synovial cells
Method: After having made these measurements at various times following insertion of the test composition into the simulated joint, the effect on MMP production by synovial cells for relevant blocker concentrations and times of exposure was measured employing a confluent layer of HIG-82 synovial cells in serumless Neuman-Tytell growth medium, which is a model system commonly used by those skilled in the art to represent human synovial tissue for the purpose of studying the proinflammatory effects of IL-1 and the antagonization thereon produced by agents of interest, for example, calcium-channel blockers.
The MMP levels in the medium conditioned by the cells were measured using the assay described in Kolomytkin, O. V., Marino, A. A., Waddell, D. D., Mathis, J. M., Wolf, R. E., Sadasivan, K. K. and Albright, J. A. IL-1β-induced Production of Metalloproteinases by Synovial Cells Depends on Gap-junction Conductance.

For `COc1ccc(CCN(C)CCCC(C#N)(c2ccc(OC)c(OC)c2)C(C)C)cc1OC` (racemic) [racemic verapamil, verapamil], the “reduction of MMP activity” value (0.009 mg/mL for 300 hours) was “about 21%”, the “reduction of MMP production/activity” value (0.05 mg/mL for 32 hours) was 59% and the “reduction of MMP production/activity” value (0.05 mg/mL for 34 hours) was 61%. The “reduction in MMP activity” value (0.05 mg/mL for 62 hours) was 87%, the inhibition at 50 µg/mL (Synovial cell, 45 h, read-out: maximum MMP inhibition) was ~81% and the inhibition at 31 µg/mL (Synovial cell, 300 h, read-out: MMP inhibition) was ~61%. For the same molecule, the inhibition at 19 µg/mL (Synovial cell, 300 h, read-out: maximum MMP inhibition) was 37%, the inhibition at 50 µg/mL (Synovial cell, read-out: MMP inhibition) was 81% and the “reduction of MMP production” value (conditions of 2 mg in saline composition: average 0.006 mg/mL, about 35 hours) was 13%. For the same molecule, the “verapamil concentration at which MMP inhibition reaches its maximum value” (exposure about 45 hours, further increases give no enhanced inhibition) was “about 0.05 mg/mL”, the “maximum MMP inhibition” value (exposure time 10 hours (FIG. 3A)) was 22% and the “maximum MMP inhibition” value (exposure time 100 hours (FIG. 3A)) was 91%.
